According to patent US20210038587A1, “METHODS AND COMPOSITIONS FOR TREATING NON-ERK MAPK PATHWAY INHIBITOR-RESISTANT CANCERS” (BIOMED VALLEY DISCOVERIES, INC., priority 2013, published 2021):

Experiments:
[1] = system: Colo205; assay: Reverse Phase Protein Analysis (RPPA); assay type: cell-based, human; settings: % change from DMSO (matched cell line)
Description: Control wells were treated with DMSO at 0.1% (v/v) for 6 hours prior to cell lysate generation. Samples were then analyzed using reverse-phase protein microarray technology (Theranostics Health).
Cell lines with common alterations in BRAF and RAS were assayed: BRAF^V600E mutant lines A375, Colo205, and HT29; KRAS^G12C-mutant cell line MIAPACa-2; KRAS^G13D-mutant cell line HCT116; and AN3Ca with atypical HRAS^F82L mutation.

[2] = system: A375; assay: Reverse Phase Protein Analysis (RPPA); assay type: cell-based, human; settings: % change from DMSO (matched cell line)
Method in brief: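 Cells were treated 6 h before lysis, with 0.1% (v/v) DMSO as control. Lysates were analysed by reverse-phase protein microarray. Protein changes are expressed as percentage change from DMSO-treated parental cells.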

Cn1nccc1Nc1nccc(-c2ccn([C@H](CO)c3ccc(Cl)c(F)c3)c(=O)c2)n1 [GDC-0994]
Avg (4ebp1 T70) [1]: −36.69%
Avg (Akt S473) [1]: 4.45%
Avg (Akt) [1]: −11.83%
Avg (Bad S136) [1]: 4%
Avg (Bad S155) [1]: −9.11%
Avg (Bak) [1]: 6.58%
Avg (Bax) [1]: 8.2%
Avg (Bcl 2) [1]: 17.95%
Avg (Bcl2 S70) [1]: −9%
Avg (Bcl 2 T56) [1]: −4.6%
Avg (Bim) [1]: 20.59%
Avg (CREB S133) [1]: −11.85%
Avg (Caspase 3 CL D175) [1]: 23.06%
Avg (Caspase 7 Cl D198) [1]: 1.37%
Avg (Chk1) [1]: 5.06%
Avg (Chk1 S345) [1]: 6.08%
Avg (Cyclin D1) [1]: −28.02%
Avg (ERK 1 2) [1]: −3.33%
Avg (ERK 1 2 T202 Y204) [1]: 20.01%
Avg (MAK1 S360) [1]: 0.82%
Avg (Mcl1) [1]: 2.5%
Avg (Raptor S792) [1]: −9.04%
Avg (Raptor) [1]: −5.48%
Avg (Rictor) [1]: −5.04%
Avg (Stat1) [1]: 7.26%
Avg (Stat3) [1]: −0.86%
Avg (bad S112) [1]: −6.12%
Avg (c Fos) [1]: −21.33%
Avg (c Myc) [1]: −6.22%
Avg (mTOR S2448) [1]: −7.36%
Avg (mTOR S2481) [1]: 0.96%
Avg (mTOR) [1]: 3.39%
Avg (p70 S6 Kinase) [1]: 5.83%
Avg (p90 RSK S380) [1]: −57.5%
Avg(S6 Ribo Prot S235 236) [1]: −91.19%
Avg(S6 Ribo Prot S240 244) [1]: −91.59%
Avg(Tuberin TSC2 Y1571) [1]: 0.66%
Avg(p70 S6 Kinase S371 S394) [1]: −13.02%
Avg(p70 S6 Kinase T389 T412) [1]: −32.2%
Avg (4ebp1 T70) [2]: −29.47%
Avg (Akt S473) [2]: 53.66%
Avg (Akt) [2]: −20.7%
Avg (Bad S136) [2]: −6.21%
Avg (Bad S155) [2]: −13.31%
Avg (Bak) [2]: 2.76%
Avg (Bax) [2]: 3.97%
Avg (Bcl 2) [2]: −3.13%
Avg (Bcl2 S70) [2]: 6.3%
Avg (Bcl 2 T56) [2]: −4.1%
Avg (Bim) [2]: 9.8%
Avg (CREB S133) [2]: −1.18%
Avg (Caspase 3 CL D175) [2]: −16.74%
Avg (Caspase 7 Cl D198) [2]: −5.53%
Avg (Chk1) [2]: −7.72%
Avg (Chk1 S345) [2]: −18.35%
Avg (Cyclin D1) [2]: −81.65%
Avg (ERK 1 2) [2]: 31.55%
Avg (ERK 1 2 T202 Y204) [2]: 142.37%
Avg (MAK1 S360) [2]: −5.21%
Avg (Mcl1) [2]: −9.09%
Avg (Raptor S792) [2]: −15.93%
Avg (Raptor) [2]: −14.32%
Avg (Rictor) [2]: −23.29%
Avg (Stat1) [2]: −5.67%
Avg (Stat3) [2]: 14.24%
Avg (bad S112) [2]: −55.32%
Avg (c Fos) [2]: −12.46%
Avg (c Myc) [2]: −9.11%
Avg (mTOR S2448) [2]: −23.61%
Avg (mTOR S2481) [2]: −19.37%
Avg (mTOR) [2]: −6.2%
Avg (p70 S6 Kinase) [2]: −18.11%
Avg (p90 RSK S380) [2]: −60.74%
Avg(S6 Ribo Prot S235 236) [2]: −87.61%
Avg(S6 Ribo Prot S240 244) [2]: −80.3%
Avg(Tuberin TSC2 Y1571) [2]: −16.74%
Avg(p70 S6 Kinase S371 S394) [2]: −17.34%
Avg(p70 S6 Kinase T389 T412) [2]: −31.9%
